Measurements: paper PMC10824666 (Nature Cancer, 2023)
Where two headings read alike, the source gives them in different places. One block for each compound: values may come before it.

Columns and labels:
Experiment in all cases: biochemical
Set-up in all cases: Eurofins DiscoverX kinase panel, competitive binding assay at 1 uM, percent of DMSO control
Settings in all cases: competitive binding, percent of DMSO control
[1] = biological target: DAPK1 (Homo sapiens, UniProt P53355)
Summary of the method: (§1)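 Single-point profiling at 1 µM compound in a competition-binding format against 96 kinases, read out as POC relative to control; n = 1.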

[2] = biological target: T1, FLT3 (Homo sapiens, UniProt P36888)
T1 sequence (P36888 1-993): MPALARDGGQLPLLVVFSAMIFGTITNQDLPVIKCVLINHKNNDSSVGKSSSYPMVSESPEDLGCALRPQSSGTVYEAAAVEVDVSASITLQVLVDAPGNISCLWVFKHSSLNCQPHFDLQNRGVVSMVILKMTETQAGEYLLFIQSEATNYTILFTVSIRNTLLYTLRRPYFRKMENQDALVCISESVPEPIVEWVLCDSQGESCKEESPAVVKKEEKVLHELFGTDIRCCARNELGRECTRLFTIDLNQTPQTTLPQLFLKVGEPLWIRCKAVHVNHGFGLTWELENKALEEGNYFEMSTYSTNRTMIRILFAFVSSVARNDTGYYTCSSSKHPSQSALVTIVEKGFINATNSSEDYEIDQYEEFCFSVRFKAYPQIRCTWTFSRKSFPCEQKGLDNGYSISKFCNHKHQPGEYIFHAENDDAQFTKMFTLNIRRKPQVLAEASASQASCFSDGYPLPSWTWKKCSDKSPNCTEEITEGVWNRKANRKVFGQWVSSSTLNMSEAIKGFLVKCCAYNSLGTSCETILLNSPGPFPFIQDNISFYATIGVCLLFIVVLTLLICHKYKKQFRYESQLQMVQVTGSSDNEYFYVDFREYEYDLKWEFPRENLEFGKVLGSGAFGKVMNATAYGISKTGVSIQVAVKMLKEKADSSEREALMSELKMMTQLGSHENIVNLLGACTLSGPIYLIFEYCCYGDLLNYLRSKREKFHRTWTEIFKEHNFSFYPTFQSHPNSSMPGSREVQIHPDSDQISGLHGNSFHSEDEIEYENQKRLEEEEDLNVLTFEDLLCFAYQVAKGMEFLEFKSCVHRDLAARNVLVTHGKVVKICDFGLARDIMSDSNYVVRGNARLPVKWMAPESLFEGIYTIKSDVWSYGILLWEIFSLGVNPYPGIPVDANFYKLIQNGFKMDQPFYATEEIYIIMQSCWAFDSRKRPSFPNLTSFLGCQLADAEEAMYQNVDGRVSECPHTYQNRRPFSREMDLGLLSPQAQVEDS
Summary of the method: as §1

[3] = biological target: MAP4K4 (Homo sapiens, UniProt O95819)
Sequence of MAP4K4 (O95819 whole entry): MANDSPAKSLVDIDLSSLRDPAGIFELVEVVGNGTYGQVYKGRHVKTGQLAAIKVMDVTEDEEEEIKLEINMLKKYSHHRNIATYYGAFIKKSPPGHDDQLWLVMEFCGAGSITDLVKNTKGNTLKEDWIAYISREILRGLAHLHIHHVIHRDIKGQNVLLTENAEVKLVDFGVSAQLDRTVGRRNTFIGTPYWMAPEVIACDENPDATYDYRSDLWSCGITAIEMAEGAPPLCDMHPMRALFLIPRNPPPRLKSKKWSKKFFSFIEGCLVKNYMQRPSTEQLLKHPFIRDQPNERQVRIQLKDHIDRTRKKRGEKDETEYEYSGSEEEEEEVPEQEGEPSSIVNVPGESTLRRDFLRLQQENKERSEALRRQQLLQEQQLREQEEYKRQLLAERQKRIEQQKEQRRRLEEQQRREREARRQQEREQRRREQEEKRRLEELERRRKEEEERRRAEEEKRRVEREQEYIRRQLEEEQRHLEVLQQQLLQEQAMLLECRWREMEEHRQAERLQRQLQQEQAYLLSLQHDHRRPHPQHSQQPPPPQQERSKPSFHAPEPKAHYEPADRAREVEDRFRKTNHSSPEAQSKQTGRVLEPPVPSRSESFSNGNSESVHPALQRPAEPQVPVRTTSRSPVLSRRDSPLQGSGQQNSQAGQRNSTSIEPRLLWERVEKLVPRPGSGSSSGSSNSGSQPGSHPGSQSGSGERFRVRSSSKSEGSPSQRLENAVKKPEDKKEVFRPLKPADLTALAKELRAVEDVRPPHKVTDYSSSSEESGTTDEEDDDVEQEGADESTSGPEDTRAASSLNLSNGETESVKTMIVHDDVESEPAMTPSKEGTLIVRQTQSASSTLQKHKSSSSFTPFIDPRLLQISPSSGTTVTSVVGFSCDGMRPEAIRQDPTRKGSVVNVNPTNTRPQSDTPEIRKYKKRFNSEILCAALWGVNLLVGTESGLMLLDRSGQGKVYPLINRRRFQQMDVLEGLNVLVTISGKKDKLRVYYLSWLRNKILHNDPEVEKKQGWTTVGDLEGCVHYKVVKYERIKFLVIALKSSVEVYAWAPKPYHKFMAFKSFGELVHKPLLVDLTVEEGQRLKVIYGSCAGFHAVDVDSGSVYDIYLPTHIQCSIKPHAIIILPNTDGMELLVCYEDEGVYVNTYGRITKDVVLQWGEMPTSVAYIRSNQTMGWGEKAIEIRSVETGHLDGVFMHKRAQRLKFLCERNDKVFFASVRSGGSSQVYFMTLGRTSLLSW
Summary of the method: as §1

[4] = biological target: T2, MNK1b (Homo sapiens, UniProt Q9BUB5)
T2 construct: gene MKNK1; isoform b
T2 sequence (Q9BUB5 whole entry, canonical isoform): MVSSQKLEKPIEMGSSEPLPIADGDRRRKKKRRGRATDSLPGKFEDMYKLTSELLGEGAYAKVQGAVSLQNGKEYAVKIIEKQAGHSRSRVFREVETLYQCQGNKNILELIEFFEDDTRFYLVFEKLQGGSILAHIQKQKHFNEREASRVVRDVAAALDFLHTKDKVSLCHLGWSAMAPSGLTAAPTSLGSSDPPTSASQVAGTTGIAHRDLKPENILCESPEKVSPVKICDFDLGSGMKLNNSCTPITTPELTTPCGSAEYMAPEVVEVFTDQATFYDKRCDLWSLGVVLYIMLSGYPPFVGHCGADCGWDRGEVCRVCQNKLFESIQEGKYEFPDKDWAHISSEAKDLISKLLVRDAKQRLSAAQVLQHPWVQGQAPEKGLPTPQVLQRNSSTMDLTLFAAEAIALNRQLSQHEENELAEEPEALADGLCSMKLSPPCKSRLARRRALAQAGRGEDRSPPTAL
Summary of the method: as §1

[5] = biological target: STK32B (Homo sapiens, UniProt Q9NY57)
Sequence of STK32B (Q9NY57 whole entry): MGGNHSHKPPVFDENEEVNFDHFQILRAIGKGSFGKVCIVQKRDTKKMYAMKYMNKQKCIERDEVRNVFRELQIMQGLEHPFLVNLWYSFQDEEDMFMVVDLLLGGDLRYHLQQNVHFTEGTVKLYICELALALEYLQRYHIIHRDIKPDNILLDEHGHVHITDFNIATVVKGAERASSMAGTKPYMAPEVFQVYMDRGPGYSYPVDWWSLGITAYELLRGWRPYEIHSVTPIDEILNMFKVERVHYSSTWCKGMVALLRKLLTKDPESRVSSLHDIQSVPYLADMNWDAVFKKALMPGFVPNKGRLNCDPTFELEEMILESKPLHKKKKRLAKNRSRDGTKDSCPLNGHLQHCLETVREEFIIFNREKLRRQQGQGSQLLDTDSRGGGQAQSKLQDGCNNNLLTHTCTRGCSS
Summary of the method: as §1

[6] = biological target: TGFBR2 (Homo sapiens, UniProt P37173)
Sequence of TGFBR2 (P37173 whole entry): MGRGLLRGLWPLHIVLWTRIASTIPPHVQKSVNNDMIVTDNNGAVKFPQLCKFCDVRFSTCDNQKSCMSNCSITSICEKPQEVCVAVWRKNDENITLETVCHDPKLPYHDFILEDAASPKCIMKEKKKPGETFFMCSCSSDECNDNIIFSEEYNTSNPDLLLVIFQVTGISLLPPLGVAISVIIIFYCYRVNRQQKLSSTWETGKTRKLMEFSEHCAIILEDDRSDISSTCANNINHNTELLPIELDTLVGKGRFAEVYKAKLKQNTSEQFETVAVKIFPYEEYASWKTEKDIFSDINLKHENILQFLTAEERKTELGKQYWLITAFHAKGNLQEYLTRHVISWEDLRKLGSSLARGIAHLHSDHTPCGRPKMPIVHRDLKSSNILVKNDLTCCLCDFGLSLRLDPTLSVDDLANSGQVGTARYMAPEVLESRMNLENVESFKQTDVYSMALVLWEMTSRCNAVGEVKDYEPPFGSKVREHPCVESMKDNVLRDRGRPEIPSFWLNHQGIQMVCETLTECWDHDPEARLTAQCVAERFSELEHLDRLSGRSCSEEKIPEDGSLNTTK
Summary of the method: as §1

[7] = biological target: mTOR (Homo sapiens, UniProt P42345)
Summary of the method: as §1

[8] = read-out: Kinome Profiling performed by Eurofins DiscoverX / AM-1882, 1.0 µM / POC
[9] = read-out: Kinome Profiling performed by Eurofins DiscoverX / AM-5308, 1.0 µM / POC
[10] = read-out: Kinome Profiling performed by Eurofins DiscoverX / AM-0277, 1.0 µM / POC

Sequence of DAPK1 (P53355 whole entry): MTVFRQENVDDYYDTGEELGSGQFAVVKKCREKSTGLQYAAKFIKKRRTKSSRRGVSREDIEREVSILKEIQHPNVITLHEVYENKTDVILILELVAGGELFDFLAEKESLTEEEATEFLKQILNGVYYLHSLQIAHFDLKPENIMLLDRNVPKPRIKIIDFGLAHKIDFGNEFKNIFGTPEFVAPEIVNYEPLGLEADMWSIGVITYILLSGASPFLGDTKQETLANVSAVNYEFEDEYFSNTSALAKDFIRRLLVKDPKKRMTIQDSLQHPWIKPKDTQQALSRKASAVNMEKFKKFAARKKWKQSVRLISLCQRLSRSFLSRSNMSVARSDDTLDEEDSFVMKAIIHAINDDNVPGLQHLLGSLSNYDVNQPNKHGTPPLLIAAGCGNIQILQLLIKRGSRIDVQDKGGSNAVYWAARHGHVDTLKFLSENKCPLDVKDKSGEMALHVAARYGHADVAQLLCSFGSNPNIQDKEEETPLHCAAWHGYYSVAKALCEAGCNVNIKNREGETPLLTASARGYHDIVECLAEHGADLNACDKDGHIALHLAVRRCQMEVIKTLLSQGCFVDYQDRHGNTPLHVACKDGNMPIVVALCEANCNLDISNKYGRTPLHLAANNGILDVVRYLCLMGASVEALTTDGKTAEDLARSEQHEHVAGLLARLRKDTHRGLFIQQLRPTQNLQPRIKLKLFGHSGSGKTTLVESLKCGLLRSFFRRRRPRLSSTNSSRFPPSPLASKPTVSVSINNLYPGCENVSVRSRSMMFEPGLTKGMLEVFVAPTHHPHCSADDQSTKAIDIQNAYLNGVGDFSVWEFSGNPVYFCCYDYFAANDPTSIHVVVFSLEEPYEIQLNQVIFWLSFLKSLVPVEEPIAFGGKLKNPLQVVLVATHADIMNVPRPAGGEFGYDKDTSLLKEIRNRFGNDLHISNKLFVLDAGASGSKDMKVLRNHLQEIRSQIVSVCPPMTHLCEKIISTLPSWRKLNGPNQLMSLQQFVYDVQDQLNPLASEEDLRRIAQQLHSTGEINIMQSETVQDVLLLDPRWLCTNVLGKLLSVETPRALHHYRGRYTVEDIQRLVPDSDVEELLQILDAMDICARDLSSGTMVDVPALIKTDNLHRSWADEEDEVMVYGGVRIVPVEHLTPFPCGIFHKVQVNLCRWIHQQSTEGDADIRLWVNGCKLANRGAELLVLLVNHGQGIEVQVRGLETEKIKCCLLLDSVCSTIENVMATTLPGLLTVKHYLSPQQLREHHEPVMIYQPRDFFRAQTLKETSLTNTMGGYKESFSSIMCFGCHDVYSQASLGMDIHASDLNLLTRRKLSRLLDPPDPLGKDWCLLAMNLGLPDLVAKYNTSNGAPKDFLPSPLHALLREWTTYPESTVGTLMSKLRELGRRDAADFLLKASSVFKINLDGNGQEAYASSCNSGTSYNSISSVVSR

remaining activity at 1 µM [1, 8]: 87% | remaining activity at 1 µM [2, 8]: 88% | remaining activity at 1 µM [3, 8]: 95% | remaining activity at 1 µM [4, 8]: 100% | remaining activity at 1 µM [5, 8]: 100% | remaining activity at 1 µM [6, 8]: 99.5% | remaining activity at 1 µM [7, 8]: 98.5%
Compound: CC(C)(C)NS(=O)(=O)c1cccc(NC(=O)c2ccc(S(=O)(=O)NC(C)(C)C)cc2N2CCC3(CC2)CC3)c1 [AM-1882]

remaining activity at 1 µM [1, 9]: 89.5% | remaining activity at 1 µM [2, 9]: 90.5% | remaining activity at 1 µM [3, 9]: 75% | remaining activity at 1 µM [4, 9]: 96.5% | remaining activity at 1 µM [5, 9]: 96% | remaining activity at 1 µM [6, 9]: 100% | remaining activity at 1 µM [7, 9]: 100%
Compound: C[C@@H]1CN(c2cccc(NC(=O)c3ccc(NS(=O)(=O)CCO)cc3N3CCC4(CC3)CC4)n2)CCO1 [AM-5308]

remaining activity at 1 µM [1, 10]: 100% | remaining activity at 1 µM [2, 10]: 94% | remaining activity at 1 µM [3, 10]: 100% | remaining activity at 1 µM [4, 10]: 100% | remaining activity at 1 µM [5, 10]: 100% | remaining activity at 1 µM [6, 10]: 75% | remaining activity at 1 µM [7, 10]: 100%
Compound: CC(C)(CO)Nc1ccc(C(=O)Nc2cccc(S(=O)(=O)C3CCCC3)c2)c(N2CCC3(CC2)CC3)n1 [AM-0277]
